pIC50, pKi: −log10 of the molar value. Where a SMILES comes first, the peptide text is derived from it. [ ]: non-standard residue; d: D form. ξ: configuration not given here. Ile(3ξ) = CCC(C)[C@H](N)C(=O)O; Thr(3ξ) = CC(O)[C@H](N)C(=O)O
Tests used:
Caspase-3 = target: T1, Caspase-3 (Homo sapiens, UniProt P42574); test: Caspase Inhibition Assay
T1 sequence (P42574 whole entry): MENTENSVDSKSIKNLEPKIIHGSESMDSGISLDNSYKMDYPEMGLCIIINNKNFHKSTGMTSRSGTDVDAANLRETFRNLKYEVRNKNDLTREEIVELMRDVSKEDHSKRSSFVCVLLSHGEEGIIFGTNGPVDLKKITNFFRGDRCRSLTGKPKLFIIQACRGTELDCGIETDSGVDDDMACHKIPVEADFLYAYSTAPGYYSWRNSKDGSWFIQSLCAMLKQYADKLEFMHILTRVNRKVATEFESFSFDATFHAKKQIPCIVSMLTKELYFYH
Description: (§1) The substrate peptides terminating in AMC are processed by caspases with or without inhibitors. […] Compounds were tested in duplicate, and IC50 curves were calculated for all inhibitors. Final IC50s were the average of three independent experiments.

Caspase-8 = Caspase-8 (Homo sapiens, UniProt Q14790); test: Caspase Inhibition Assay
Description: as §1

Chain of Caspase-8 (Q14790 217-374 limits assumed): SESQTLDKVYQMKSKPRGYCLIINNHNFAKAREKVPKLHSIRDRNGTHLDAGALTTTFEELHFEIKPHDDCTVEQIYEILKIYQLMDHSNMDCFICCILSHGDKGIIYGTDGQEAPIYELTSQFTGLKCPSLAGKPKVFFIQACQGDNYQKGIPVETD
Chain of Caspase-8 (Q14790 385-479 limits assumed): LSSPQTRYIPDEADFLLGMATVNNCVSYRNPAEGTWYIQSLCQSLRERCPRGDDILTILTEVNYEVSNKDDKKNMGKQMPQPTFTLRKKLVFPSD

pKi (Caspase-3) | pIC50 (Caspase-8) | SMILES
8.36 | – | COc1ccc(CN2C(=O)C(=O)c3cc(S(=O)(=O)N4CCC[C@H]4COc4cccnc4)ccc32)cc1 [1-[(4-methoxyphenyl)methyl]-5-{[(2S)-2-[(pyridin-3-yloxy)methyl]pyrrolidine-1-]sulfonyl}-2,3-dihydro-1H-indole-2,3-dione]
– | 8.33 | CCC(C)[C@H](NC(C)=O)C(=O)N[C@@H](CCC(=O)O)C(=O)N[C@H](C(=O)N[C@H](C=O)CC(=O)O)C(C)O (stereo partly drawn) [(4S)-4-{[(1S)-1-{[(2S)-1-carboxy-3-oxopropan-2-yl]carbamoyl}-2-hydroxypropyl]carbamoyl}-4-[(2S)-2-acetamido-3-methylpentanamido]butanoic acid] (Ac-[Ile(3ξ)]E[Thr(3ξ)]D-aldehyde)
